Columns and labels:
Alternaria solani = Alternaria solani / tomato / leaf disc (early blight); type: in vivo; conditions: foliar, tomato leaf disks cv. Baby, inoculated 2 days after application, assessed 5-7 days after application, read-out: control of Alternaria solani (percent disease control compared to untreated)
Method: Example B1: Alternaria solani/Tomato/Leaf Disc (Early Blight) Tomato leaf disks cv. Baby are placed on agar in multiwell plates (24-well format) and sprayed with the formulated test compound diluted in water. The leaf disks are inoculated with a spore suspension of the fungus 2 days after application. The inoculated leaf disks are incubated at 23° C./21° C. […] […]-185.

[1] = tested on: Botryotinia fuckeliana (Botrytis cinerea); assay: Botryotinia fuckeliana (Botrytis cinerea) / liquid culture (gray mould); type: cell-based; conditions: Vogels broth, 24° C., 3-4 days after application, read-out: control of Botryotinia fuckeliana (inhibition of growth, photometric)
How it was run: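 Botrytis cinerea conidia in Vogels broth were added to compound supplied as DMSO solution. Plates were incubated at 24 °C, and growth inhibition was read photometrically 3-4 days after application.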

[2] = tested on: Glomerella lagenarium (Colletotrichum lagenarium); assay: Glomerella lagenarium (Colletotrichum lagenarium) / liquid culture (anthracnose); type: cell-based; conditions: Colletotrichum orbiculare, PDB potato dextrose broth, 24° C., 3-4 days after application, read-out: control of Glomerella lagenarium (inhibition of growth, photometric)
How it was run: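 Conidia from cryogenic storage suspended in potato dextrose broth and added to DMSO compound solution in plates. Incubated at 24° C; growth inhibition read photometrically 3-4 days after application.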

[3] = tested on: Blumeria graminis f. sp. tritici (Erysiphe graminis f. sp. tritici); assay: Blumeria graminis f. sp. tritici / wheat / leaf disc preventative (powdery mildew on wheat); type: in vivo; conditions: foliar, wheat leaf segments cv. Kanzler, inoculated 1 day after application, assessed 6-8 days after application, read-out: control of Blumeria graminis f. sp. tritici (percent disease control compared to untreated)
Text: Example B4: Blumeria graminis f. sp. tritici (Erysiphe graminis f. sp. tritici)/Wheat/Leaf Disc Preventative (Powdery Mildew on Wheat) Wheat leaf segments cv. Kanzler are placed on agar in a multiwell plate (24-well format) and sprayed with the formulated test compound diluted in water. The leaf disks are inoculated by shaking powdery mildew infected plants above the test plates 1 day after application. […] […]-192.

Fusarium culmorum = assay: microbe, parasite or virus in culture; type: cell-based; conditions: read-out: control of Fusarium culmorum (inhibition of growth, photometric)
[4] = tested on: Phaeosphaeria nodorum (Septoria nodorum); assay: Phaeosphaeria nodorum (Septoria nodorum) / wheat / leaf disc preventative (glume blotch); type: in vivo; conditions: Parastagonospora nodorum, foliar, wheat leaf segments cv. Kanzler, inoculated 2 days after application, assessed 5-7 days after application, read-out: control of Phaeosphaeria nodorum (percent disease control compared to untreated)
How it was run: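 Wheat cv. Kanzler leaf discs on agar were sprayed with formulated compound diluted in water and inoculated with spores 2 days later. Discs were kept at 20° C, 75% rh, 12 h light/dark; percent disease control versus untreated was scored 5-7 days after application.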

[5] = tested on: Monographella nivalis (Microdochium nivale); assay: Monographella nivalis (Microdochium nivale) / liquid culture (foot rot cereals); type: cell-based; conditions: PDB potato dextrose broth, 24° C., 4-5 days after application, read-out: control of Monographella nivalis (inhibition of growth, photometric)
How it was run: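 Cryostored M. nivalis conidia mixed into potato dextrose broth and added to 96-well plates holding test compound in DMSO. Incubated at 24° C; growth inhibition read photometrically 4-5 days after application.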

[6] = tested on: Mycosphaerella arachidis (Cercospora arachidicola); assay: Mycosphaerella arachidis (Cercospora arachidicola) / liquid culture (early leaf spot); type: cell-based; conditions: PDB potato dextrose broth, 24° C., 4-5 days after application, read-out: control of Mycosphaerella arachidis (inhibition of growth, photometric)
How it was run: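 Conidia from cryogenic storage suspended in potato dextrose broth and added to compound in DMSO. Incubation at 24° C; growth inhibition read photometrically 4-5 days after application.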

[7] = tested on: Puccinia recondita f. sp. tritici; assay: Puccinia recondita f. sp. tritici / wheat / leaf disc preventative (brown rust); type: in vivo; conditions: foliar, wheat leaf segments cv. Kanzler, inoculated 1 day after application, assessed 7-9 days after application, read-out: control of Puccinia recondita f. sp. tritici, preventative (percent disease control compared to untreated)
How it was run: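 Wheat leaf segments (cv. Kanzler) on agar were sprayed with formulated compound, then inoculated with spores 1 day later. Segments were incubated at 19 °C, 75% rh with 12 h light/dark. Percent disease control versus untreated was scored 7–9 days after application.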

[8] = tested on: Magnaporthe grisea (Pyricularia oryzae); assay: whole plant or invertebrate; type: in vivo; conditions: foliar, read-out: control of Magnaporthe grisea (percent disease control compared to untreated)
Pyrenophora teres = Pyrenophora teres / barley / leaf disc preventative (net blotch); type: in vivo; conditions: foliar, barley leaf segments cv. Hasso, inoculated 2 days after application, assessed 5-7 days after application, read-out: control of Pyrenophora teres (disease control compared to untreated)
How it was run: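 Barley cv. Hasso leaf discs on agar were sprayed with diluted formulated compound, then inoculated with spore suspension 2 days later. Incubation at 20 °C, 65% rh, 12 h light/dark; disease control versus untreated assessed 5-7 days after application.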

[9] = tested on: Mycosphaerella graminicola (Septoria tritici); assay: Mycosphaerella graminicola (Septoria tritici) / liquid culture (Septoria blotch); type: cell-based; conditions: Zymoseptoria tritici, PDB potato dextrose broth, 24° C., 4-5 days after application, read-out: control of Mycosphaerella graminicola (inhibition of growth, photometric)
How it was run: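 Conidia from cryogenic storage were mixed into potato dextrose broth and added to test compound in DMSO. Plates were incubated at 24° C, and growth inhibition was read photometrically 4-5 days after application.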

[10] = tested on: Puccinia recondita f. sp. tritici; assay: Puccinia recondita f. sp. tritici / wheat / leaf disc curative (brown rust); type: in vivo; conditions: foliar, wheat leaf segments cv. Kanzler, compound applied 1 day after inoculation, assessed 6-8 days after application, read-out: control of Puccinia recondita f. sp. tritici, curative (percent disease control compared to untreated)
Method: Example B10: Puccinia recondita f. sp. tritici/Wheat/Leaf Disc Curative (Brown Rust) Wheat leaf segments cv. Kanzler are placed on agar in multiwell plates (24-well format). The leaf segments are inoculated with a spore suspension of the fungus. Plates are stored in darkness at 19° C. and 75% rh. The formulated test compound diluted in water is applied 1 day after inoculation. […] […]-185.

Sclerotinia sclerotiorum = Sclerotinia sclerotiorum / liquid culture (cottony rot); type: cell-based; conditions: PDB potato dextrose broth, mycelia fragments, 24° C., 3-4 days after application, read-out: control of Sclerotinia sclerotiorum (inhibition of growth, photometric)
Method: Example B14: Sclerotinia sclerotiorum/Liquid Culture (Cottony Rot) Mycelia fragments of a newly grown liquid culture of the fungus are directly mixed into nutrient broth (PDB potato dextrose broth). After placing a (DMSO) solution of test compound into a microtiter plate (96-well format) the nutrient broth containing the fungal material is added. The test plates are incubated at 24° C. and the inhibition of growth is determined photometrically 3-4 days after application.

COc1ccc(Nc2cc(F)cc(F)c2)nc1C(=O)NC1CCC1(C)C (stereo not drawn) [Compound P-7, 6-(3,5-difluoroanilino)-N-(2,2-dimethylcyclobutyl)-3-methoxy-pyridine-2-carboxamide]
≥ 80%: pest or weed control at 200 ppm (Alternaria solani) | inhibition at 20 ppm [1] | inhibition at 20 ppm [2] | pest or weed control at 200 ppm [3] | inhibition at 20 ppm (Fusarium culmorum) | pest or weed control at 200 ppm [4] | inhibition at 20 ppm [5] | inhibition at 20 ppm [6] | pest or weed control at 200 ppm [7] | pest or weed control at 200 ppm [8] | pest or weed control at 200 ppm (Pyrenophora teres) | inhibition at 20 ppm [9]

COc1ccc(Nc2cc(F)cc(F)c2)nc1C(=O)NC1(C)CCCC1 [Compound P-107, 6-(3,5-difluoroanilino)-3-methoxy-N-(1-methylcyclopentyl)pyridine-2-carboxamide]
≥ 80%: pest or weed control at 200 ppm (Alternaria solani) | inhibition at 20 ppm [2] | pest or weed control at 200 ppm [3] | inhibition at 20 ppm (Fusarium culmorum) | pest or weed control at 200 ppm [4] | inhibition at 20 ppm [5] | inhibition at 20 ppm [6] | pest or weed control at 200 ppm [10] | pest or weed control at 200 ppm [7] | pest or weed control at 200 ppm [8] | pest or weed control at 200 ppm (Pyrenophora teres) | inhibition at 20 ppm (Sclerotinia sclerotiorum) | inhibition at 20 ppm [9]

COc1ccc(Nc2cc(F)cc(F)c2)nc1C(=O)NC1(C)CCCCC1 [Compound P-108, 6-(3,5-difluoroanilino)-3-methoxy-N-(1-methylcyclohexyl)pyridine-2-carboxamide]
≥ 80%: inhibition at 20 ppm [2] | pest or weed control at 200 ppm [3] | inhibition at 20 ppm (Fusarium culmorum) | inhibition at 20 ppm [5] | inhibition at 20 ppm [6] | pest or weed control at 200 ppm [7] | pest or weed control at 200 ppm [8] | pest or weed control at 200 ppm (Pyrenophora teres) | inhibition at 20 ppm (Sclerotinia sclerotiorum) | inhibition at 20 ppm [9]

COc1ccc(Nc2cc(F)cc(F)c2)nc1C(=O)NC(C)C(C)C (stereo not drawn) [Compound P-168, 6-(3,5-difluoroanilino)-N-(1,2-dimethylpropyl)-3-methoxy-pyridine-2-carboxamide]
≥ 80%: inhibition at 20 ppm [1] | inhibition at 20 ppm [2] | pest or weed control at 200 ppm [3] | inhibition at 20 ppm (Fusarium culmorum) | inhibition at 20 ppm [5] | inhibition at 20 ppm [6] | pest or weed control at 200 ppm [7] | pest or weed control at 200 ppm (Pyrenophora teres) | inhibition at 20 ppm [9]

COc1ccc(Nc2cc(F)cc(F)c2)nc1C(=O)NC1(C2CCC2)CCC1 [Compound P-176, N-(1-cyclobutylcyclobutyl)-6-(3,5-difluoroanilino)-3-methoxy-pyridine-2-carboxamide]
≥ 80%: pest or weed control at 200 ppm (Alternaria solani) | inhibition at 20 ppm [1] | inhibition at 20 ppm [2] | pest or weed control at 200 ppm [3] | inhibition at 20 ppm (Fusarium culmorum) | pest or weed control at 200 ppm [4] | inhibition at 20 ppm [5] | inhibition at 20 ppm [6] | pest or weed control at 200 ppm [7] | pest or weed control at 200 ppm (Pyrenophora teres) | inhibition at 20 ppm [9]

CCC1(NC(=O)c2nc(Nc3cc(F)cc(F)c3)ccc2OC)CCC1 [Compound P-178, 6-(3,5-difluoroanilino)-N-(1-ethylcyclobutyl)-3-methoxy-pyridine-2-carboxamide]
≥ 80%: pest or weed control at 200 ppm (Alternaria solani) | inhibition at 20 ppm [1] | inhibition at 20 ppm [2] | pest or weed control at 200 ppm [3] | inhibition at 20 ppm (Fusarium culmorum) | pest or weed control at 200 ppm [4] | inhibition at 20 ppm [5] | inhibition at 20 ppm [6] | pest or weed control at 200 ppm [10] | pest or weed control at 200 ppm [7] | pest or weed control at 200 ppm (Pyrenophora teres) | inhibition at 20 ppm [9]

COc1ccc(Nc2cc(F)cc(F)c2)nc1C(=O)NC1(C(C)C)CCC1 [Compound P-179, 6-(3,5-difluoroanilino)-N-(1-isopropylcyclobutyl)-3-methoxy-pyridine-2-carboxamide]
≥ 80%: pest or weed control at 200 ppm (Alternaria solani) | inhibition at 20 ppm [1] | inhibition at 20 ppm [2] | pest or weed control at 200 ppm [3] | inhibition at 20 ppm (Fusarium culmorum) | pest or weed control at 200 ppm [4] | inhibition at 20 ppm [5] | inhibition at 20 ppm [6] | pest or weed control at 200 ppm [7] | pest or weed control at 200 ppm (Pyrenophora teres) | inhibition at 20 ppm [9]

From patent US12458021B2, “Microbiocidal derivatives” (SYNGENTA CROP PROTECTION AG, priority 2019, dated 2025)
